# Measurements: US10702497B2, “Use of acyl-homoserine lactone derivatives as anti-thrombotic agents” (The University of Toledo, priority 2015, dated 2020)
# Experiments:
# Assay type in all cases: cell-based
# human platelets [1] = assay: Thrombin-induced platelet activation, surface CD62P by flow cytometry; conditions: 0.1 U/ml thrombin; for maximal inhibitory concentration (MIC) for thrombin: AHL pre-incubation 15 minutes at 37° C., CD62P; for inhibition of platelet activation by thrombin: several concentrations of AHL
# human platelets [2] = assay: aggIgG-induced platelet activation, surface CD62P by flow cytometry; conditions: aggIgG 50 or 500 μg/ml; several concentrations of AHL
# human platelets [3] = assay: Platelet tyrosine phosphorylation (whole cell lysates, SDS-PAGE, anti-phosphotyrosine blot); conditions: 20 μM 12C-AHL
# Procedure: FIGS. 3A-3C: Effect of AHLs on tyrosine phosphorylation. Human platelets were incubated with PBS or 12C-AHL then left unstimulated or stimulated with […] aggIgG or 0.1 Um′ thrombin. Whole cell lysates were prepared as described in the examples and blotted for anti-phosphotyrosine or anti-GAPDH as loading control. (FIG. 3A.) To determine band intensities, total band intensity in the phosphorylation gel was divided by the GAPDH signal and plotted as total band intensity. (FIG. 3B.) Intensity of the indicated band was compared to GAPDH and plotted as band intensity. (FIG. 3C.)
# Results from the above experiments indicate that AHLs are altering platelet signaling downstream of FcγRIIa (the receptor for aggIgG) and thrombin receptors (PAR1/4) to a lesser extent. To test this, human platelets were incubated with PBS or 20 μM 12C-AHL for 15 min at 37° C. followed by stimulation with thrombin or aggIgG. Whole cell lysates were separated by SDS-PAGE and blotted for phosphotyrosine.
# human platelets [4] = assay: Platelet phagocytosis of IgG-coated beads through FcγRIIa (flow cytometry); conditions: FITC-IgG-coated 1.5 μm beads, 30 minutes
# Procedure: FIGS. 4A-4C: Effect of AHLs on platelet-mediated phagocytosis. Human platelets were incubated as indicated in the examples and analyzed by flow cytometry for FITC-IgG and PE-anti-IgG. (FIG. 4A.) Platelets were incubated with PBS, 10C- or 12C-AHLs or cytochalasin D (positive control to block phagocytosis), then exposed to FITC-IgG-coated […] beads for 30 minutes, labeled with anti-IgG conjugated to PE and analyzed by flow cytometry for FITC-IgG and PE-anti-IgG. (FIG. 4B.) Platelets were treated as in FIG. 4B and surface CD62P expression was measured by flow cytometry. * p<0.01, ** p<0.005. (FIG. 4C.)
# Polystyrene beads, 1.5 μm in diameter, (Polysciences, Warrington, Pa.) were opsonized for 2 hours at 21° C. in a 10 mg/ml solution FITC labeled human IgG (SigmaAldrich, St. Louis, Mo.) or unlabeled human IgG for controls. After washing three times in PBS, beads were then resuspended in buffer and counted via hemacytometer. […]
# Samples were prepared for flow cytometry and platelets with associated beads were gated on CD42b+/FITC+ and analyzed for internal/external by the absence/presence of PE expression on a FACSCalibur (B-D Biosciences). […] Data were analyzed using Cell Quest (B-D Biosciences) and FlowJo (Tree Star, Inc., Ashland, Oreg.) software.
# Because AHLs inhibit signaling (especially aggIgG-induced tyrosine phosphorylation), whether other platelet activities are inhibited was evaluated. […]
maximal inhibitory concentration (MIC) for thrombin (human platelets [1]) [µM],SMILES,inhibition of platelet activation by thrombin (human platelets [1]),inhibition of platelet activation by aggIgG (human platelets [2]),"effect on tyrosine phosphorylation in unstimulated platelets (human platelets [3]; 15 min at 37° C., unstimulated)",effect on tyrosine phosphorylation in platelets stimulated with thrombin (human platelets [3]; 0.1 U/ml thrombin),effect on phosphorylation induced by aggIgG (human platelets [3]; aggIgG stimulation),inhibition of the phagocytic activity of platelets (human platelets [4]) [%]
200,"CCCCCCCCCC(=O)CC(=O)N[C@@H]1CCOC1=O [12C-AHL, N-oxo-dodecanoyl-L-homoserine lactone]",inhibit platelet activation,inhibit platelet activation,marginal effect,marginal effect,nearly completely abolished,
200,"CCCCCCCC(=O)CC(=O)N[C@H]1CCOC1=O [10C-AHL, N-(3-oxodecanoyl)-L-homoserine lactone]",inhibit platelet activation,inhibit platelet activation,,,,
,C=C1[C@@H](C)[C@H]2[C@H](Cc3ccccc3)NC(=O)[C@]23[C@H](OC(C)=O)/C=C/[C@@](C)(O)C(=O)[C@@H](C)C/C=C/[C@H]3[C@@H]1O [cytochalasin D],,,,,,> 90
